Biological target: T1, Recombinant human mPGES-1 (Homo sapiens, UniProt O14684)
T1 construct: made in house; host or cells: CHO cells
T1 sequence (O14684 1-152): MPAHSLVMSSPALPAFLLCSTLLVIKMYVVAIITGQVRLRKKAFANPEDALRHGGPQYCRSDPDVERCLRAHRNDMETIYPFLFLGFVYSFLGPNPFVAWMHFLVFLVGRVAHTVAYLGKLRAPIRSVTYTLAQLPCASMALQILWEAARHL
Test: In-vitro mPGES-1 inhibitor screening (inhibition of PGE2 formation from PGH2, HTRF detection)
Format: biochemical
Conditions: for inhibition at 1 µM: 1 μM test compound, read-out: Percentage inhibition at 1 μM; for inhibition at 1 µM / inhibition at 10 µM: crude microsomal fraction, 15 μM PGH2; for inhibition at 10 µM: 10 μM test compound, read-out: Percentage inhibition at 10 μM; for IC50: class symbol, concentration response curve
Source text: In-Vitro Protocol for Screening of mPGES-1 Inhibitors:
mPGES-1 (microsomal prostaglandin E synthase-1) is a microsomal enzyme that converts endoperoxide substrate PGH2 (prostaglandin H2) to product PGE2 (prostaglandin E2) by isomerization in the presence of reduced glutathione (GSH). mPGES-1 inhibitors were screened by assessing their ability to inhibit formation of PGE2 from PGH2 in presence of mPGES-1 using an anti-PGE2 antibody based detection method. Recombinant human mPGES-1 was generated in-house by expression in CHO cells (Ouellet M et al. (2002), Protein Expression and Purification 26: 489-495). The assay was set up using crude microsomal fractions at protein concentration of 40-60 μg/mL. Test compounds were prepared in 100% dimethyl sulfoxide (DMSO) to obtain 20 mM stock solution and then diluted using assay buffer comprising 0.1 M Potassium phosphate buffer with 2 mM EDTA. The final concentration of DMSO in reaction was 0.5% (v/v). Negative controls were comprised of all assay reagents except the enzyme. Positive controls were comprised of the enzyme reaction in the absence of any inhibitor. Test compounds were incubated for 10 minutes in assay buffer containing 2.5 mM GSH and mPGES-1 enzyme followed by addition of PGH2 at a concentration of 15 μM for 1 minute. The reaction was stopped by addition of Stannous chloride (11 mg/ml) and PGE2 levels were measured (Masse F et al. (2005), Journal of Biomolecular Screening 10(6) 599-605., Goedken R E et al. (2008), Journal of Biomolecular Screening 13(7): 619-625) by HTRF kit (CisBio)).
Inhibition of mPGES-1 enzyme activity was measured using the percent of reaction occurring in the positive control. Concentration response curves were plotted using percent inhibition of maximum enzyme reaction. The IC50 value was calculated from the concentration response curve by nonlinear regression analysis using GraphPad PRISM software.

Row | inhibition at 1 µM | inhibition at 10 µM | IC50 | Structure (SMILES)
1 | 94.4% | 93.9% | < 50 nM | CC(C)(C)C(=O)NCc1ccc(Cl)c(C(=O)Nc2cccc3c(O[C@H]4CC[C@H](C(F)(F)F)CC4)ncnc23)c1F [Example-27, 6-Chloro-2-fluoro-3-(pivalamidomethyl)-N-(4-(((1r,4r)-4-(trifluoromethyl)cyclohexyl)oxy)quinazolin-8-yl)benzamide]
2 | 95% | 94.9% | < 50 nM | O=C(Nc1cccc2c(Nc3cccc(C(F)(F)F)c3)ncnc12)c1c(Cl)ccc(CNC(=O)[C@@H]2CCCO2)c1F [Example-23, (S)—N-(4-Chloro-2-fluoro-3-((4-((3-(trifluoromethyl)phenyl)amino)quinazolin-8-yl)carbamoyl)benzyl)tetrahydrofuran-2-carboxamide]
3 | 99% | 99.8% | < 50 nM | CC(C)(C)C(=O)NCc1ccc(Cl)c(C(=O)Nc2cccc3c(Nc4ccc(C(F)(F)F)cc4F)ncnc23)c1F [Example-29, 6-Chloro-2-fluoro-N-(4-((2-fluoro-4-(trifluoromethyl)phenyl)amino)quinazolin-8-yl)-3-(pivalamidomethyl)benzamide]
4 | 98.3% | 98.3% | < 50 nM | CC(C)(C)C(=O)NCc1ccc(Cl)c(C(=O)Nc2cccc3c(Oc4ccc(C(F)(F)F)cc4)ccnc23)c1F [Example-53, 6-Chloro-2-fluoro-3-(pivalamidomethyl)-N-(4-(4-(trifluoromethyl)phenoxy)quinolin-8-yl)benzamide]
5 | 99% | 99.6% | < 50 nM | CC(C)(C)C(=O)NCc1ccc(Cl)c(C(=O)Nc2cccc3c(Oc4cccc(C(F)(F)F)c4)ccnc23)c1 [Example-16, 2-Chloro-5-(pivalamidomethyl)-N-(4-(3-(trifluoromethyl)phenoxy)quinolin-8-yl)benzamide]
6 | 98.1% | 99.1% | < 50 nM | CC(C)(C)C(=O)NCc1ccc(Cl)c(C(=O)Nc2cccc3c(N[C@H]4CC[C@H](C(F)(F)F)CC4)nccc23)c1F [Example-36, 6-Chloro-2-fluoro-3-(pivalamidomethyl)-N-(1-(((1r,4r)-4-(trifluoromethyl)cyclohexyl)amino)isoquinolin-5-yl)benzamide]
7 | 75.4% | 84% | > 100 nM | O=C(Nc1cccc2c(Nc3cc(C(F)(F)F)ccc3F)ncnc12)c1c(F)cccc1Cl [Example-34, 2-Chloro-6-fluoro-N-(4-((2-fluoro-5-(trifluoromethyl)phenyl)amino)quinazolin-8-yl)benzamide]
8 | 97.3% | 97.2% | < 50 nM | CC(C)(C)C(=O)NCc1ccc(Cl)c(C(=O)Nc2cccc3c(Nc4cc(C(F)(F)F)ccc4F)ncnc23)c1F [Example-21, 6-Chloro-2-fluoro-N-(4-((2-fluoro-5-(trifluoromethyl)phenyl)amino)quinazolin-8-yl)-3-(pivalamidomethyl)benzamide]
9 | 97.7% | 96.3% | < 50 nM | CC(C)(C)C(=O)NCc1ccc(Cl)c(C(=O)Nc2cccc3c(N[C@H]4CC[C@H](C(F)(F)F)CC4)ncnc23)c1F [Example-37, 6-Chloro-2-fluoro-3-(pivalamidomethyl)-N-(4-(((1r,4r)-4-(trifluoromethyl)cyclohexyl)amino)quinazolin-8-yl)benzamide]
10 | 88.3% | 97.2% | > 100 nM | CN(C)c1ncnc2c(NC(=O)c3c(Cl)ccc(CNC(=O)C(C)(C)C)c3F)cccc12 [Example-61, 6-Chloro-N-(4-(dimethylamino)quinazolin-8-yl)-2-fluoro-3-(pivalamidomethyl)benzamide]
11 | 97.9% | 99.3% | 50 to 100 nM | Cc1nc(Oc2cccc(C(F)(F)F)c2)c2cccc(NC(=O)c3c(Cl)ccc(CNC(=O)C(C)(C)C)c3F)c2n1 [Example-56, 6-Chloro-2-fluoro-N-(2-methyl-4-(3-(trifluoromethyl)phenoxy)quinazolin-8-yl)-3-(pivalamidomethyl)benzamide]
12 | 100% | 98.8% | < 50 nM | CC(C)C(=O)NCc1ccc(Cl)c(C(=O)Nc2cccc3c(NC(C)(C)C)ncnc23)c1F [Example-70, N-(4-(tert-Butylamino)quinazolin-8-yl)-6-chloro-2-fluoro-3-(isobutyramidomethyl)benzamide]
13 | 97.4% | 90.7% | < 50 nM | CC(C)(C)C(=O)NCc1ccc(Cl)c(C(=O)Nc2cccc3c(Oc4cccc(C(F)(F)F)c4)ncnc23)c1F [Example-11, 6-Chloro-2-fluoro-3-(pivalamidomethyl)-N-(4-(3-(trifluoromethyl)phenoxy)quinazolin-8-yl)benzamide]
14 | 91.1% | 95.2% | < 50 nM | CC(C)(C)C(=O)NCc1ccc(Cl)c(C(=O)Nc2cccc3c(Oc4ccc(F)c(C(F)(F)F)c4)nccc23)c1 [Example-48, 2-Chloro-N-(1-(4-fluoro-3-(trifluoromethyl)phenoxy)isoquinolin-5-yl)-5-(pivalamidomethyl)benzamide]
15 | 96.5% | 99.6% | < 50 nM | Cc1ccc2c(Nc3cccc(C(F)(F)F)c3)ncnc2c1NC(=O)c1c(Cl)ccc(CNC(=O)C(C)(C)C)c1F [Example-42, 6-Chloro-2-fluoro-N-(7-methyl-4-((3-(trifluoromethyl)phenyl)amino)quinazolin-8-yl)-3-(pivalamidomethyl)benzamide]
16 | 51.3% | 93.4% |  | Cc1nc(N2CCOCC2)c2cccc(NC(=O)c3c(Cl)ccc(CNC(=O)C(C)(C)C)c3F)c2n1 [Example-58, 6-Chloro-2-fluoro-N-(2-methyl-4-morpholinoquinazolin-8-yl)-3-(pivalamidomethyl)benzamide]
17 | 97.5% | 99.4% | < 50 nM | CC(C)Oc1ncnc2c(NC(=O)c3c(Cl)ccc(CNC(=O)C(C)(C)C)c3F)cccc12 [Example-59, 6-Chloro-2-fluoro-N-(4-isopropoxyquinazolin-8-yl)-3-(pivalamidomethyl)benzamide]
18 | 97.7% | 98.2% | < 50 nM | CC(C)(C)C(=O)NCc1ccc(Cl)c(C(=O)Nc2ccnc3c(Nc4cccc(C(F)(F)F)c4)cccc23)c1 [Example-19, 2-Chloro-5-(pivalamidomethyl)-N-(8-((3-(trifluoromethyl)phenyl)amino)quinolin-4-yl)benzamide]
19 | 100% | 100% | < 50 nM | CC(C)(C)C(=O)NCc1ccc(Cl)c(C(=O)Nc2cccc3c(NC4CCC(F)(F)CC4)ncnc23)c1 [Example-14, 2-Chloro-N-(4-((4,4-difluorocyclohexyl)amino)quinazolin-8-yl)-5-(pivalamidomethyl)benzamide]
20 | 85.1% | 97.7% | > 100 nM | CC(C)(C)C(=O)NCc1ccc(Cl)c(C(=O)Nc2cccc3c(O[C@H]4CC[C@@H](C(F)(F)F)CC4)nccc23)c1 [Example-47, 2-Chloro-5-(pivalamidomethyl)-N-(1-(((1s,4s)-4-(trifluoromethyl)cyclohexyl)oxy)isoquinolin-5-yl)benzamide]
21 | 78.4% | 99.9% | < 50 nM | CC(C)Nc1ncnc2c(NC(=O)c3c(Cl)ccc(CNC(=O)C(C)C)c3F)cccc12 [Example-77, 6-Chloro-2-fluoro-3-(isobutyramidomethyl)-N-(4-(isopropylamino)quinazolin-8-yl)benzamide]
22 | 99% | 97.6% | < 50 nM | CC(C)(C)C(=O)NCc1ccc(Cl)c(C(=O)Nc2cccc3c(Oc4cc(C(F)(F)F)ccc4F)nccc23)c1 [Example-41, 2-Chloro-N-(1-(2-fluoro-5-(trifluoromethyl)phenoxy)isoquinolin-5-yl)-5-(pivalamidomethyl)benzamide]
23 | 99.4% | 99.7% | < 50 nM | CC(C)(C)C(=O)NCc1ccc(Cl)c(C(=O)Nc2cccc3c(Nc4cccc(C(F)(F)F)c4)ncnc23)c1F [Example-12, 6-Chloro-2-fluoro-3-(pivalamidomethyl)-N-(4-((3-(trifluoromethyl)phenyl)amino)quinazolin-8-yl)benzamide]
